Data published in US12227520B2 (priority 2019, dated 2025).
Read-outs that look alike come from different tables or passages of the source.

Key:
[1] = Cytotoxicity assay in MT-4 cells; type: cell-based, human; conditions: human, uninfected MT-4 cells, 5 days incubation; read-out: CC50
Summary of the method: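 Infected MT-4 cells (HIV-1 IIIB, fresh 1:250 dilution of concentrated stock) or mock-infected cells exposed to compounds for 5 days at 37 °C. Viability by CellTiter-Glo luminescence; 5 μM AZT positive control, no-drug negative control. Uninfected cells used for cytotoxicity, with 10 μM puromycin as base-level cytotoxicity control.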

[2] = tested on: HIV-1 (IIIB); assay: Antiviral assay in MT-4 cells (HIV MT-4 antiviral assay); type: cell-based; conditions: Human immunodeficiency virus 1, IIIB, MT4, 120 h, HIV-1 (IIIB) in MT-4 cells, 5 days incubation; read-out: EC50
Summary of the method: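 MT-4 cells infected with HIV-1 IIIB (1:250 diluted stock) and exposed to 1:3 serially diluted compound in RPMI with 10% FBS. Viability read by CellTiter-Glo luminescence after 5 days at 37° C; mock-infected cells and 5 μM AZT as controls.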

[3] = tested on: pLai RLuc reporter virus; assay: microbe, parasite or virus in culture; type: cell-based, HIV
Description: To quantify the amount of protein binding to human serum, compounds were serially diluted (1:3) in DMSO and acoustically transferred onto 384-well assay plates via a Labcyte ECHO robot. Each plate contained up to 8 test compounds, including negative and positive controls, (DMSO, 5 μM AZT respectively). Assay plates were prepared in duplicate, and tested in either CCM (cell culture media) or HS/CCM (human serum/cell culture media). MT-4 cells were first pre-infected with pLai RLuc reporter virus for 2 h at 37° C., then further diluted in either CCM (RPMI media, 10% FBS, 1% P/S) or HS/CCM (RPMI media, 10% FBS, 50% HS, 1% P/S), and subsequently added to each plate using a Biotek Micro Flow dispenser. After a 72-h incubation in a humidified and temperature controlled incubator (37° C.), Renilla Glo (Promega) was added to all assay plates and chemiluminescence read using an Envision plate-reader. […] To determine the amount of protein binding, EC50 fold shifts (or EC50 shifts) were calculated by dividing EC50 (HS/CCM)/EC50 (CCM).

[4] = Human immunodeficiency virus 1, 72 h, read-out: Antiviral Serum Shift RLuc 50% HS, HS/CCM (RPMI media, 10% FBS, 50% HS, 1% P/S), 72-h incubation
[5] = Human immunodeficiency virus 1, 72 h, read-out: Antiviral Serum Shift RLuc CCM, CCM (RPMI media, 10% FBS, 1% P/S), 72-h incubation

Compound | CC50 at 5 days [1] | EC50 [2] | EC50 [3, 4] | EC50 [3, 5] | EC50 ([3]; read-out: Antiviral Serum Shift RLuc 50% HS, HS/CCM (RPMI media, 10% FBS, 50% HS, 1% P/S), 72-h incubation)
O=C(NCc1c(F)cc(F)cc1F)c1cn2c(c(O)c1=O)C(=O)N1C[C@@H]2CCC[C@@H]1CF [Example 164, (3R,7S)-3-(fluoromethyl)-12-hydroxy-1,11-dioxo-N-(2,4,6-trifluorobenzyl)-1,4,5,6,7,11-hexahydro-3H-2,7-methanopyrido[1,2-a][1,4]diazonine-10-carboxamide] | 10400 nM | 1.21 nM | 13.3 nM | 0.333 nM | –
O=C(NCc1ccc(F)c(Cl)c1F)c1cn2c(c(O)c1=O)C(=O)N1CCCC[C@@H]2C1 [Example 35, (7R)—N-(3-chloro-2,4-difluorobenzyl)-12-hydroxy-1,11-dioxo-1,4,5,6,7,11-hexahydro-3H-2,7-methanopyrido[1,2-a][1,4]diazonine-10-carboxamide] | 4960 nM | 1.5 nM | 44.4 nM | 0.423 nM | –
O=C(NCc1c(F)cc(F)cc1F)c1cn2c(c(O)c1=O)C(=O)N1CCCC(CF)C2C1 (single isomer, unassigned) [Example 194-1, 6-(fluoromethyl)-12-hydroxy-1,11-dioxo-N-(2,4,6-trifluorobenzyl)-1,4,5,6,7,11-hexahydro-3H-2,7-methanopyrido[1,2-a][1,4]diazonine-10-carboxamide] | 10800 nM | 1.39 nM | – | 0.683 nM | 222 nM
C[C@]12CN(CCc3cc(F)c(F)cc31)C(=O)c1c(O)c(=O)c(C(=O)NCc3c(F)cc(F)cc3F)cn12 (single isomer, unassigned) [Example 120-2] | 11100 nM | > 59.4 nM | 239 nM | 14 nM | –
O=C(NCc1c(F)cc(F)cc1F)c1cn2c(c(O)c1=O)C(=O)N1C[C@@H]2CSc2ccccc21 [Example 94, (6R)-1-hydroxy-2,14-dioxo-N-(2,4,6-trifluorobenzyl)-2,6,7,14-tetrahydro-6,13-methanobenzo[b]pyrido[2,1-f][1,4,7]thiadiazonine-3-carboxamide] | 13700 nM | 1.15 nM | 1.73 nM | 0.411 nM | –
C[C@@H]1CO[C@H](C)[C@H]2CN1C(=O)c1c(O)c(=O)c(C(=O)NCc3ccc(F)cc3F)cn12 [Example 197, (3R,6R,7R)—N-(2,4-difluorobenzyl)-12-hydroxy-3,6-dimethyl-1,11-dioxo-1,3,4,6,7,11-hexahydro-2,7-methanopyrido[1,2-d][1,4,7]oxadiazonine-10-carboxamide] | 22400 nM | 1.49 nM | 8.35 nM | 0.589 nM | –
O=C(NCc1ccc(F)cc1F)c1cn2c(c(O)c1=O)C(=O)N1CCCC[C@@H]2C1 (single isomer, unassigned) [Example 25-1] | 11500 nM | 1.3 nM | 36.6 nM | 0.42 nM | –
C[C@H]1[C@H](F)CC[C@H]2CN1C(=O)c1c(O)c(=O)c(C(=O)NCc3c(F)cc(F)cc3F)cn12 [Example 158, (3S,4R,7S)-4-fluoro-12-hydroxy-3-methyl-1,11-dioxo-N-(2,4,6-trifluorobenzyl)-1,4,5,6,7,11-hexahydro-3H-2,7-methanopyrido[1,2-a][1,4]diazonine-10-carboxamide] | 8830 nM | 1.67 nM | 49.7 nM | 0.306 nM | –
O=C(NCc1ccc(F)cc1F)c1cn2c(c(O)c1=O)C(=O)N1CCC[C@H]3C[C@@]32C1 [Example 65-2, (1aS,11aS)—N-(2,4-difluorobenzyl)-7-hydroxy-6,8-dioxo-1a,2,3,4,6,8-hexahydro-1H-5,11a-methanocyclopropa[h]pyrido[1,2-a][1,4]diazonine-9-carboxamide] | 8820 nM | 1.66 nM | 3.47 nM | 0.341 nM | –
